Assay [1] deals with Human norepinephrine transporter (NET) (Homo sapiens, UniProt P23975). The experiment in a line: Binding assay to human norepinephrine transporter (NET), [3H]-Nisoxetin. The settings on record: human NET enriched membranes, 5 nM [3H]-Nisoxetin; read-out: Ki (nM) NET Hum. The procedure:
Binding Assay to Human Norepinephrine Transporter (NET).
Human norepinephrine transporter (NET) enriched membranes (5 μg) were incubated with 5 nM of radiolabeled [3H]-Nisoxetin in assay buffer containing 50 mM Tris-HCl, 120 mM NaCl, 5 mM KCl, pH 7.4.
NSB (non specific binding) was measured by adding 1 μM. After 60 min incubation at 4° C., binding reaction was terminated by filtering through Multiscreen GF/C (Millipore) presoaked in 0.5% polyethyleneimine in Vacuum Manifold Station, followed by 3 washes with ice-cold filtration buffer containing 50 mM Tris-HCl, 0.9% NaCl, pH 7.4. Filter plates were dried at 60° C. for 1 hour and 30 μl of scintillation cocktail were added to each well before radioactivity reading.

The target in assay [2] is Human α2δ-1 subunit of Cav2.2 calcium channel (Homo sapiens, UniProt P54289). The assay can be described thus: Binding assay to human α2δ-1 subunit of Cav2.2 calcium channel, [3H]-Gabapentin. The settings on record: human α2δ-1 enriched membranes, 15 nM [3H]-Gabapentin; read-out: Ki (nM) alpha2delta Hum. The procedure: Binding Assay to Human α2δ-1 Subunit of Cav2.2 Calcium Channel.
Human α2δ-1 enriched membranes (2.5 μg) were incubated with 15 nM of radiolabeled [3H]-Gabapentin in assay buffer containing Hepes-KOH 10 mM, pH 7.4.
NSB (non specific binding) was measured by adding 10 μM pregabalin. After 60 min incubation at 27° C., binding reaction was terminated by filtering through Multiscreen GF/C (Millipore) presoaked in 0.5% polyethyleneimine in Vacuum Manifold Station, followed by 3 washes with ice-cold filtration buffer containing 50 mM Tris-HCl, pH 7.4.
Filter plates were dried at 60° C. for 1 hour and 30 μl of scintillation cocktail were added to each well before radioactivity reading.
Readings were performed in a Trilux 1450 Microbeta radioactive counter (Perkin Elmer).

Counter-ions that a name gives are not always drawn.

Chain of Human α2δ-1 subunit of Cav2.2 calcium channel (P54289 25-1103): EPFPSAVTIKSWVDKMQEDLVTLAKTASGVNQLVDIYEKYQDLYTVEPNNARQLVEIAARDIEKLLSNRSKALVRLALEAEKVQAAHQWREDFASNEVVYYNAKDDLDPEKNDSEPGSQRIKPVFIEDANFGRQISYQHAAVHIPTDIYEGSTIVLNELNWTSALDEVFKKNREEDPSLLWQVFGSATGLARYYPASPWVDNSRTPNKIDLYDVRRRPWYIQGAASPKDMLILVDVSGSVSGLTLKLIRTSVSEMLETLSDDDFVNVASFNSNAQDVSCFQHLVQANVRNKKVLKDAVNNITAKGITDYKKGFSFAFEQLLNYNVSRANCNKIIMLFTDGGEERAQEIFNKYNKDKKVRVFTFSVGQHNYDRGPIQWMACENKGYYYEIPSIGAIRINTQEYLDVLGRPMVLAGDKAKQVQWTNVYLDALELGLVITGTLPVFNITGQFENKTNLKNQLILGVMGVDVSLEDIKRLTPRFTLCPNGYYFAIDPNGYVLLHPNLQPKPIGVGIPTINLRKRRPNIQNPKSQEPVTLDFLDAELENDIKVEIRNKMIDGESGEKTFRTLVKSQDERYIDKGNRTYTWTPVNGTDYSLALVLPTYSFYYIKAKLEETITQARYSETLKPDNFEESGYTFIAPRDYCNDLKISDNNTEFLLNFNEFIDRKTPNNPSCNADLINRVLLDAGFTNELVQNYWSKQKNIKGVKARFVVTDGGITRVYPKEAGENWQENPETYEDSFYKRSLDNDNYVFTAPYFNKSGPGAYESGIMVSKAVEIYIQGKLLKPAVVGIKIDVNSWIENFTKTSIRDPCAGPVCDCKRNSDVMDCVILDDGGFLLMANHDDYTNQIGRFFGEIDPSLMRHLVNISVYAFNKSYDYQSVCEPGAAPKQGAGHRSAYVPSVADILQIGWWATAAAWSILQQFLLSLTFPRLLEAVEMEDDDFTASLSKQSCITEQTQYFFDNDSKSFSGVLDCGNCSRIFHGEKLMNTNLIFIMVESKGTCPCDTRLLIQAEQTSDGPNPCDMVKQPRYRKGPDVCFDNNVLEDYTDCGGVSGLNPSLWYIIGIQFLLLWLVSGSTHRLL
Chain of Human norepinephrine transporter (NET) (P23975 whole entry): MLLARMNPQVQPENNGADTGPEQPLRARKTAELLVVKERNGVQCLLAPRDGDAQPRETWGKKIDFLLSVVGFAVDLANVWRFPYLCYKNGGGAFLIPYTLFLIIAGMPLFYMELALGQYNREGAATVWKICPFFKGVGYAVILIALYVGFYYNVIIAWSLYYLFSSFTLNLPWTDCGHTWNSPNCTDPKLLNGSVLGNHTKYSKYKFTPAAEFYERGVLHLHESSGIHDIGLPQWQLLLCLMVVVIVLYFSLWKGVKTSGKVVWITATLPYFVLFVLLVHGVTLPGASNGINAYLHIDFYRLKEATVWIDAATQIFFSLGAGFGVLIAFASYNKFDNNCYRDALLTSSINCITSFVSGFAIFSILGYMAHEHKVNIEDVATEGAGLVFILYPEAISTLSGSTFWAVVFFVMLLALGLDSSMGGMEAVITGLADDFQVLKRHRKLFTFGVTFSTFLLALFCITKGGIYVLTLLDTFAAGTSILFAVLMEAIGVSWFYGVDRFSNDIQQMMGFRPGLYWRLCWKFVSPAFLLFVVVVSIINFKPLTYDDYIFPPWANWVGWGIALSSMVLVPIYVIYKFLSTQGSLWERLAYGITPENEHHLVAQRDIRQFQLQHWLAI

`CNCCC(c1cccs1)N1CCCc2ncccc21` (stereo not drawn) [Example 5, 3-(3,4-Dihydro-1,5-naphthyridin-1(2H)-yl)-N-methyl-3-(thiophen-2-yl)propan-1-amine]: the Ki in assay [1] is above 1000 nM; in assay [2], 100 to 500 nM.
Taken in the same sequence, the figures for `CNCCC(c1cccs1)N1CCc2ccc(C#N)cc21` (stereo not drawn) [Example 94, 1-(3-(Methylamino)-1-(thiophen-2-yl)propyl)indoline-6-carbonitrile] were above 1000 nM and 100 to 500 nM.
For `CNCC[C@@H](c1ccsc1)N1CC(C)(C)c2nc(C(F)(F)F)ccc21` [Example 107, (S)-3-(3,3-Dimethyl-5-(trifluoromethyl)-2,3-dihydro-1H-pyrrolo[3,2-b]pyridin-1-yl)-N-methyl-3-(thiophen-3-yl)propan-1-amine] the same measures were 100 to 500 nM and 100 to 500 nM.
Take `CNCC[C@H](c1sccc1Cl)N1CCc2ncccc21` [Example 36, (R)-3-(3-Chlorothiophen-2-yl)-3-(2,3-dihydro-1H-pyrrolo[3,2-b]pyridin-1-yl)-N-methylpropan-1-amine]: the Ki in assay [1] was 100 to 500 nM; in assay [2], at least 3000 nM.
As to `CNCC[C@H](c1ccsc1)N1CCc2ncc(C3CC3)cc21` [Example 52, (R)-3-(6-Cyclopropyl-2,3-dihydro-1H-pyrrolo[3,2-b]pyridin-1-yl)-N-methyl-3-(thiophen-3-yl)propan-1-amine], the Ki in assay [1] was 500 to 1000 nM; in assay [2], below 100 nM.
Taken in the same sequence, the figures for `CNCCC(c1cccs1)N1CC(C)(C)c2ncc(Cl)cc21` (stereo not drawn) [Example 73, 3-(6-Chloro-3,3-dimethyl-2,3-dihydro-1H-pyrrolo[3,2-b]pyridin-1-yl)-N-methyl-3-(thiophen-2-yl)propan-1-amine] were above 1000 nM and 100 to 500 nM.
Turning to `CNCC[C@@H](c1cccs1)N1CCc2c(C#N)cccc21` [Example 112, (S)-1-(3-(methylamino)-1-(thiophen-2-yl)propyl)indoline-4-carbonitrile], the Ki was above 1000 nM in assay [1] and 100 to 500 nM in assay [2].
With `CNCCC(c1cccs1)N1CC(C)(C)c2ncc(F)cc21` (stereo not drawn) [Example 66, 3-(6-Fluoro-3,3-dimethyl-2,3-dihydro-1H-pyrrolo[3,2-b]pyridin-1-yl)-N-methyl-3-(thiophen-2-yl)propan-1-amine], the values for the Ki in assay [1] and in assay [2] were above 1000 nM and 100 to 500 nM, respectively.
Consider `CCNCC[C@H](c1ccsc1)N1CCc2ncc(F)cc21` [Example 91, (R)-N-ethyl-3-(6-fluoro-2,3-dihydro-1H-pyrrolo[3,2-b]pyridin-1-yl)-3-(thiophen-3-yl)propan-1-amine], for which the values for the Ki in assay [1] and in assay [2] were above 1000 nM and 500 to 3000 nM, respectively.
For `CN(C)CCC(c1cccs1)N1CCc2ncccc21` (stereo not drawn) [Example 15, 3-(2,3-Dihydro-1H-pyrrolo[3,2-b]pyridin-1-yl)-N,N-dimethyl-3-(thiophen-2-yl)propan-1-amine], the Ki in assay [1] was above 1000 nM; in assay [2] it was at least 3000 nM.
In the case of `CCc1cnc2c(c1)N([C@@H](CCNC)c1ccsc1)CC2` [Example 77, (S)-3-(6-Ethyl-2,3-dihydro-1H-pyrrolo[3,2-b]pyridin-1-yl)-N-methyl-3-(thiophen-3-yl)propan-1-amine], the values for the Ki in assay [1] and in assay [2] were 100 to 500 nM and 500 to 3000 nM, respectively.
On to `CNCC[C@H](c1cccs1)N1CCc2ncc(OC)cc21` [Example 30, (R)-3-(6-Methoxy-2,3-dihydro-1H-pyrrolo[3,2-b]pyridin-1-yl)-N-methyl-3-(thiophen-2-yl)propan-1-amine], for which the Ki in assay [1] was above 1000 nM; in assay [2] it was 100 to 500 nM.
Turning to `CNCCC(c1ccc(F)s1)N1CCc2ncccc21` (stereo not drawn) [Example 6, 3-(2,3-Dihydro-1H-pyrrolo[3,2-b]pyridin-1-yl)-3-(5-fluorothiophen-2-yl)-N-methylpropan-1-amine], the Ki lay within 500 to 1000 nM in assay [1] and 500 to 3000 nM in assay [2].
`CNCC[C@H](c1ccc(F)s1)N1CCc2ncccc21` [Example 18, (R)-3-(2,3-Dihydro-1H-pyrrolo[3,2-b]pyridin-1-yl)-3-(5-fluorothiophen-2-yl)-N-methylpropan-1-amine]: the Ki in assay [1] is 500 to 1000 nM; in assay [2] it was 500 to 3000 nM.
Take `CNCC[C@@H](c1cccs1)N1CCc2nc(C(C)C)ccc21` [Example 49, (S)-3-(5-Isopropyl-2,3-dihydro-1H-pyrrolo[3,2-b]pyridin-1-yl)-N-methyl-3-(thiophen-2-yl)propan-1-amine]: the Ki is above 1000 nM in assay [1] and at least 3000 nM in assay [2].
For `CNCCC(c1ccsc1)N1CC(C)(C)c2ncc(Cl)cc21` (racemic) [Example 80, 3-(6-Chloro-3,3-dimethyl-2,3-dihydro-1H-pyrrolo[3,2-b]pyridin-1-yl)-N-methyl-3-(thiophen-3-yl)propan-1-amine] the same measures were above 1000 nM and 100 to 500 nM.
Turning to `CNCCC(c1ccsc1)N1CC(C)(C)c2nc(C#N)ccc21` (stereo not drawn) [Example 104, 3,3-Dimethyl-1-(3-(methylamino)-1-(thiophen-3-yl)propyl)-2,3-dihydro-1H-pyrrolo[3,2-b]pyridine-5-carbonitrile Hydrochloride], the Ki in assay [1] was above 1000 nM; in assay [2], 100 to 500 nM.
Taken in the same sequence, the figures for `CNCC[C@H](c1cccs1)N1CCc2nc(C(C)C)ccc21` [Example 48, (R)-3-(5-Isopropyl-2,3-dihydro-1H-pyrrolo[3,2-b]pyridin-1-yl)-N-methyl-3-(thiophen-2-yl)propan-1-amine] were above 1000 nM and 500 to 3000 nM.
For the compound `CNCC[C@@H](c1cccs1)N1CCc2ncc(C(C)C)cc21` [Example 38, (S)-3-(6-Isopropyl-2,3-dihydro-1H-pyrrolo[3,2-b]pyridin-1-yl)-N-methyl-3-(thiophen-2-yl)propan-1-amine], the Ki in assay [1] is above 1000 nM; in assay [2], at least 3000 nM.
For `CNCC[C@@H](c1cccc(F)c1)N1CC(C)(C)c2ncccc21` [Example 84, (S)-3-(3,3-Dimethyl-2,3-dihydro-1H-pyrrolo[3,2-b]pyridin-1-yl)-3-(3-fluorophenyl)-N-methylpropan-1-amine] the same measures were 100 to 500 nM and at least 3000 nM.
Consider `CNCC[C@H](c1cc(C)sc1C)N1CCc2ncccc21` [Example 42, (R)-3-(2,3-Dihydro-1H-pyrrolo[3,2-b]pyridin-1-yl)-3-(2,5-dimethylthiophen-3-yl)-N-methylpropan-1-amine], for which the Ki was above 1000 nM in assay [1] and at least 3000 nM in assay [2].
On to `CNCC[C@H](c1cccs1)N1CC(C)(C)c2ncc(Cl)cc21` [Example 110, (R)-3-(6-chloro-3,3-dimethyl-2,3-dihydro-1H-pyrrolo[3,2-b]pyridin-1-yl)-N-methyl-3-(thiophen-2-yl)propan-1-amine], for which the Ki in assay [1] was above 1000 nM; in assay [2], 100 to 500 nM.
Taken in the same sequence, the figures for `CNCC[C@H](c1cccs1)N1c2ccccc2C[C@@H]1C` [Example 118, (R)—N-methyl-3-((S)-2-methylindolin-1-yl)-3-(thiophen-2-yl)propan-1-amine] were above 1000 nM and at least 3000 nM.
As for `CNCC[C@@H](c1cc(C)cs1)N1CCc2ncccc21` [Example 57, (S)-3-(2,3-Dihydro-1H-pyrrolo[3,2-b]pyridin-1-yl)-N-methyl-3-(4-methylthiophen-2-yl)propan-1-amine], the figures for the Ki in assay [1] and in assay [2] were above 1000 nM and 500 to 3000 nM, respectively.
Taken in the same sequence, the figures for `CNCC[C@H](c1cccs1)N1CC(C)(C)c2ncccc21` [Example 20, (R)-3-(3,3-Dimethyl-2,3-dihydro-1H-pyrrolo[3,2-b]pyridin-1-yl)-N-methyl-3-(thiophen-2-yl)propan-1-amine] were above 1000 nM and 100 to 500 nM.
Consider `CNCCC(c1cccs1)N1CCc2c(F)cccc21` (stereo not drawn) [Example 67, 3-(4-Fluoroindolin-1-yl)-N-methyl-3-(thiophen-2-yl)propan-1-amine], for which the values for the Ki in assay [1] and in assay [2] were below 100 nM and 500 to 3000 nM, respectively.
For `CNCCC(c1ccccc1)N1CCc2ncccc21` (stereo not drawn) [Example 7, 3-(2,3-Dihydro-1H-pyrrolo[3,2-b]pyridin-1-yl)-N-methyl-3-phenylpropan-1-amine] the same measures were 500 to 1000 nM and at least 3000 nM.
With `CNCCC(c1cccs1)N1CC(C)(C)c2ncc(C#N)cc21` (stereo not drawn) [Example 97, 3,3-Dimethyl-1-(3-(methylamino)-1-(thiophen-2-yl)propyl)-2,3-dihydro-1H-pyrrolo[3,2-b]pyridine-6-carbonitrile], the Ki in assay [1] was above 1000 nM; in assay [2] it was below 100 nM.
In the case of `CNCC[C@@H](c1ccsc1)N1CCc2ncccc21` [Example 23, (S)-3-(2,3-Dihydro-1H-pyrrolo[3,2-b]pyridin-1-yl)-N-methyl-3-(thiophen-3-yl)propan-1-amine], the Ki in assay [1] and in assay [2] was 100 to 500 nM throughout.
In the case of `CNCC[C@H](c1ccsc1)N1CCc2ncc(C)cc21` [Example 103, (R)—N-methyl-3-(6-methyl-2,3-dihydro-1H-pyrrolo[3,2-b]pyridin-1-yl)-3-(thiophen-3-yl)propan-1-amine], the Ki was above 1000 nM in assay [1] and 100 to 500 nM in assay [2].

Source of the values: patent US20200207759A1, “NEW PROPANAMINE DERIVATIVES FOR TREATING PAIN AND PAIN RELATED CONDITIONS” (ESTEVE PHARMACEUTICALS, S.A., priority 2017, published 2020).
